Measured values reported in patent publication US9527805B2, “Small molecules as epigenetic modulators of lysine-specific demethylase 1 and methods of treating disorders” (priority 2010, dated 2016).
Where two headings read alike, the source gives them in different places.

Columns and labels:
[1] = tested on: H3K4me2 in the P19 cell line; conditions: cited from earlier work
[2] = tested on: HCT116 human colon tumor xenograft; assay: HCT116 human colon tumor xenograft model; type: in vivo, athymic nu/nu Fox Chase mice; conditions: 2 mg/kg, 5 times a week over 38 days
Description: Previously, various polyaminobiguanidides were evaluated in an HCT116 human colon tumor xenograft model in athymic nu/nu Fox Chase mice. Mice were treated with polyaminobiguanidides, 5-azacytidine (5-AC) or a combination of the two agents. Drugs were administered 5 times a week over a period of 38 days.

recombinant human LSD1 = target: T1, recombinant human LSD1 (Homo sapiens, UniProt O60341); assay: LSD1 demethylase assay, luminol-dependent chemiluminescence (H2O2 production), H3K4me2 (1-21 aa) peptide substrate; type: biochemical; conditions: compound at 10 μM
T1 construct: Full-length human LSD1 cDNA was subcloned into the pET15b bacterial expression vector; 6xHis (N); made in house; host or cells: Escherichia coli BL21(DE3)
Description: Full-length human LSD1 cDNA was subcloned into the pET15b bacterial expression vector (Novagen, Madison, Wis.) in frame with an N-terminal 6×HIS-tag and transformed into the BL21(DE3) strain of Escherichia coli. Following selection, expression and purification of recombinant LSD1 protein were performed as previously described. Briefly, expression of LSD1-HIS protein was induced by 1 mM IPTG for 6 h at 25° C. The HIS-tagged protein was purified using Ni-NTA affinity purification resin and column as recommended by the manufacturer (Qiagen, Valencia, Calif.). Bound protein was eluted by imidazole and the eluate was dialyzed in PBS at 4° C. Enzymatic activity of LSD1 was examined using luminol-dependent chemiluminescence to measure the production of H2O2, as previously described. In brief, LSD1 activity was assayed in 50 mM Tris, pH 8.5, 50 mM KCl, 5 mM MgCl, 5 nmol luminol, and 20 μg/ml horseradish peroxidase with the indicated concentrations of H3K4me2 (1-21 aa) peptide as substrate. The integral values were calibrated against standards containing known concentrations of H2O2, and the activities expressed as pmols H2O2/mg protein/min. Reaction mixtures were incubated with or without 5 μg purified LSD1 in 50 mM Tris, pH 8.5, 50 mM KCl, 5 mM MgCl, 0.5% BSA, and 5% glycerol for 3 hr at 37° C. This reaction mixture was analyzed by Western blotting using antibodies (Millipore) that specifically recognize the dimethyl group of H3K4.

H3K4me2 = H3K4me2 level by Western blotting of nuclear fractions; type: cell-based; conditions: Homo sapiens
Description: Synthetic H3K4me2 peptides were purchased from Millipore (Billerica, Mass.). Calu-6 cells were maintained in RPMI medium, both supplemented with 10% fetal bovine serum (Gemini Bio-Products, Woodland, Calif.) and grown at 37° C. in 5% CO2 atmosphere.
Cytoplasmic and nuclear fractions were prepared for Western blot analysis using the NE-PER™ Nuclear and Cytoplasmic Extraction Kit (Pierce, Rockford, Ill.). Primary antibodies against H3K4me2 were from Millipore. The pCNA monoclonal antibody was purchased from Oncogene Research Products (Cambridge, Mass.). Dye-conjugated secondary antibodies were used for quantification of Western blot results using the Odyssey Infrared Detection system and software (LI-COR Biosciences, Lincoln, Nebr.).

[3] = target: recombinant LSD1/CoRest complex (Homo sapiens, UniProt O60341); conditions: cited from earlier work
[4] = 24 h, read-out: H3K4me2 Fold Increase (24 h)
[5] = 48 h, read-out: H3K4me2 Fold Increase (48 h)

Compound	remaining activity at 10 µM (recombinant human LSD1)	other results
N[C@@H]1C[C@H]1c1ccccc1 (racemic) [tranylcypromine]	–	effect on global levels of H3K4me2 (in words) [1]: increase global levels of H3K4me2
Nc1ncn([C@@H]2O[C@H](CO)[C@@H](O)[C@H]2O)c(=O)n1 [Entry 5-AC, 5-azacytidine]	–	reduction of tumor growth [2]: about 50%
O=C(O)CCCCCC(=O)Nc1ccccc1F [Entry 37]	95.9%	–
COC(=O)[C@@H](N)CCCCNC(=O)CC(=O)Nc1ccccc1F [Entry 38]	88.4%	fold induction at 5 µM (H3K4me2; [4]): 0.3; fold induction at 10 µM (H3K4me2; [4]): 0.2; fold induction at 5 µM (H3K4me2; [5]): 0.7; fold induction at 10 µM (H3K4me2; [5]): 5.6
COC(=O)[C@H](CCCCNC(=O)NC(c1ccccc1)c1ccccc1)NC(=O)CC(=O)Nc1ccccc1F [Entry 39]	100%	–
C#CCN(CC#C)CCCC[C@H](NC(=O)CC(=O)Nc1ccccc1F)C(=O)OC [Entry 45]	84.1%	–
C#CCN(CC#C)CCCC[C@H](NC(=O)CCCC(=O)Nc1ccccc1F)C(=O)OC [Entry 48]	100%	–
C#CCN(CC#C)CCCC[C@H](NC(=O)CCCCCC(=O)Nc1ccccc1F)C(=O)OC [Entry 50]	100%	–
NNCCc1ccccc1 [phenelzine]	–	effect on global levels of H3K4me2 (in words) [1]: increase global levels of H3K4me2; effect on nucleosomal demethylation (in words) [3]: inactivate nucleosomal demethylation

Continued, in another order:

remaining activity at 10 µM (recombinant human LSD1)	Compound	other results
98.2%	O=C(O)CC(=O)Nc1ccccc1F [Entry 33]	fold induction at 5 µM (H3K4me2; [4]): 1.81; fold induction at 10 µM (H3K4me2; [4]): 1.5; fold induction at 5 µM (H3K4me2; [5]): 3.15; fold induction at 10 µM (H3K4me2; [5]): 1.09
92.6%	O=C(O)CCC(=O)Nc1ccccc1F [Entry 34]	–
100%	O=C(O)CCCC(=O)Nc1ccccc1F [Entry 35]	–
76.4%	O=C(O)CCCCC(=O)Nc1ccccc1F [Entry 36]	–
100%	COC(=O)[C@H](CCCCNC(=O)NCC(c1ccccc1)c1ccccc1)NC(=O)CC(=O)Nc1ccccc1F [Entry 40]	–
100%	COC(=O)[C@H](CCCCNC(=O)NCCC(c1ccccc1)c1ccccc1)NC(=O)CC(=O)Nc1ccccc1F [Entry 41]	–
100%	COC(=O)[C@H](CCCCNC(=S)NC(c1ccccc1)c1ccccc1)NC(=O)CC(=O)Nc1ccccc1F [Entry 42]	fold induction at 5 µM (H3K4me2; [4]): 49.1; fold induction at 10 µM (H3K4me2; [4]): 60.6; fold induction at 5 µM (H3K4me2; [5]): 0.5; fold induction at 10 µM (H3K4me2; [5]): 3
100%	COC(=O)[C@H](CCCCNC(=S)NCC(c1ccccc1)c1ccccc1)NC(=O)CC(=O)Nc1ccccc1F [Entry 43]	–
100%	COC(=O)[C@H](CCCCNC(=S)NCCC(c1ccccc1)c1ccccc1)NC(=O)CC(=O)Nc1ccccc1F [Entry 44]	–
90.4%	C#CCNCCCC[C@H](NC(=O)CC(=O)Nc1ccccc1F)C(=O)OC [Entry 46]	–
92.4%	C#CCN(CC#C)CCCC[C@H](NC(=O)CCC(=O)Nc1ccccc1F)C(=O)OC [Entry 47]	–
100%	C#CCN(CC#C)CCCC[C@H](NC(=O)CCCCC(=O)Nc1ccccc1F)C(=O)OC [Entry 49]	–
